By IC50 is commonly meant the concentration that inhibits the measured activity by half.

Structures can show the parent of a compound that is named as a salt.

Assay [1] has as its system MG-63. As to the kind of experiment: Cytotoxicity against human MG63 cells by MTT assay. The format is functional, cell-based. (In general: Formazan colour is commonly taken as a measure of viable cells.)
The test system of assay [2] is A549. Put plainly: Cytotoxicity against human A549 cells by MTT assay. The format is functional, cell-based.

In assay [1], `COc1cccc2c1C(=O)c1c(O)c3c(c(O)c1C2=O)C[C@@](O)(C(=O)CO)C[C@@H]3O[C@H]1C[C@H](N)[C@H](O)[C@H](C)O1` [DOXORUBICIN HYDROCHLORIDE] registered an IC50 of 3.4 µM.
Take `CC(=O)OC(C)(C)CCC[C@@H](C)[C@H]1CC[C@H]2[C@@H]3CC=C4C[C@@H](O[C@H]5OC[C@H](O)[C@H](O)[C@H]5O)CC[C@]4(CO)[C@H]3CC[C@]12C` [JUNCEELLOSIDE C]: the IC50 in assay [1] is 17.2 µM; in assay [2], 11.4 µM.
`C=C(CC[C@@H](C)[C@H]1CC[C@H]2[C@@H]3CC=C4C[C@@H](O[C@H]5OC[C@H](O)[C@H](O)[C@H]5O)CC[C@]4(CO)[C@H]3CC[C@]12C)C(C)(C)OC(C)=O` [JUNCEELLOSIDE E]: the IC50 in assay [1] and in assay [2] was > 50 µM throughout.
As to `CC(=O)OC(C)(C)C/C=C/[C@@H](C)[C@H]1CC[C@H]2[C@@H]3CC=C4C[C@@H](O[C@@H]5OC[C@@H](O)[C@@H](O)[C@@H]5O)CC[C@]4(CO)[C@H]3CC[C@]12C` [JUNCEELLOSIDE F], the IC50 is 23 µM in assay [1] and > 50 µM in assay [2].
As for `CC(=O)O[C@@H]1[C@H](O[C@H]2CC[C@@]3(CO)C(=CC[C@@H]4[C@@H]3CC[C@]3(C)[C@@H]([C@H](C)CCCC(C)(C)OC(C)=O)CC[C@@H]43)C2)OC[C@@H](O)[C@H]1O` [JUNCEELLOSIDE G], the IC50 in assay [1] stood at 23 µM; in assay [2], 13.9 µM.
